Measured values: PubChem BioAssay AID256 (DTP/NCI, 2004)
Several values for one entry are separate records, joined by “and”; a condition that tells them apart may be missing. Identical values can stand only once. Inconclusive results and toxic doses are left out. How the source made its calls: active means survival T/C of 150% or more; inactive means T/C below 125% in these data.

Tested on: CD2F1 mice, L1210 leukemia ip, survival T/C
Assay: NCI In Vivo Anticancer Drug Screen. Data for tumor model L1210 Leukemia (intraperitoneal) in CD2F1 (CDF1) mice
Details: higher = longer survival
Outline: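 Mice carrying a transplanted tumor received test compound or vehicle alone. The value is the measurement in the treated group divided by that in the vehicle-treated control group.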

[1] = endpoint: mean survival time, dose: 100.0 mg/kg/injection, schedule: Q04DX002 (ip), vehicle: saline with Tween-80
[2] = endpoint: mean survival time, dose: 200.0 mg/kg/injection, schedule: Q04DX002 (ip), vehicle: saline with Tween-80
[3] = endpoint: mean survival time, dose: 6.25 mg/kg/injection, schedule: Q01DX001 (ip), vehicle: saline with Tween-80
[4] = endpoint: mean survival time, dose: 12.5 mg/kg/injection, schedule: Q01DX001 (ip), vehicle: saline with Tween-80
[5] = endpoint: mean survival time, dose: 400.0 mg/kg/injection, schedule: Q04DX002 (ip), vehicle: saline with Tween-80

Measured: T/C

O=c1cc(-c2ccc3c(c2)OCO3)oc2ccccc12
inactive: endpoint: mean survival time, dose: 50.0 mg/kg/injection, schedule: Q01DX001 (ip), vehicle: saline 102 % of control | endpoint: mean survival time, dose: 100.0 mg/kg/injection, schedule: Q01DX001 (ip), vehicle: saline 98 % of control | endpoint: mean survival time, dose: 200.0 mg/kg/injection, schedule: Q01DX001 (ip), vehicle: saline 98 % of control | endpoint: mean survival time, dose: 400.0 mg/kg/injection, schedule: Q01DX001 (ip), vehicle: saline 92 % of control

CC1SC(C)SC(C)S1 (configuration not stated)
inactive: endpoint: mean survival time, dose: 75.0 mg/kg/injection, schedule: Q01DX001 (ip), vehicle: saline with Tween-80 98 % of control | endpoint: mean survival time, dose: 150.0 mg/kg/injection, schedule: Q01DX001 (ip), vehicle: saline with Tween-80 98 % of control | endpoint: mean survival time, dose: 300.0 mg/kg/injection, schedule: Q01DX001 (ip), vehicle: saline with Tween-80 102 % of control

COc1ccc(COC(=O)Nc2ccc(C)cc2)cc1
inactive: endpoint: mean survival time, dose: 50.0 mg/kg/injection, schedule: Q04DX002 (ip), vehicle: saline with Tween-80 100 % of control | [1] 100 % of control | [2] 96 % of control

CCC[CH2][Sn]1([CH2]CCC)[O]CC2OC(n3cc(C)c(=O)[nH]c3=O)CC2[O]1 (configuration not stated)
inactive: endpoint: mean survival time, dose: 0.78 mg/kg/injection, schedule: Q01DX005 (ip), vehicle: other 97 % of control | endpoint: mean survival time, dose: 1.56 mg/kg/injection, schedule: Q01DX005 (ip), vehicle: other 101 % of control | endpoint: mean survival time, dose: 3.13 mg/kg/injection, schedule: Q01DX005 (ip), vehicle: other 106 % of control

CCCCCCCCCCCCCCCCC/C=C1\CC(=O)OC1=O
inactive: endpoint: mean survival time, dose: 100.0 mg/kg/injection, schedule: Q04DX003 (ip), vehicle: saline with Tween-80 88 % of control

CC(=O)Nc1cccc(N=NN(C)C)c1
active: endpoint: mean survival time, dose: 50.0 mg/kg/injection, schedule: Q01DX009 (ip), vehicle: Klucel (hydroxypropylcellulose) (HPC) 151 % of control
inactive: endpoint: mean survival time, dose: 12.5 mg/kg/injection, schedule: Q01DX009 (ip), vehicle: Klucel (hydroxypropylcellulose) (HPC) 113 % of control | endpoint: mean survival time, dose: 200.0 mg/kg/injection, schedule: Q01DX009 (ip), vehicle: Klucel (hydroxypropylcellulose) (HPC) 87 % of control

CC1(C)CC(=O)C2=C(C1)OC1(O)CC(C)(C)CC(=O)C1C2c1ccccc1[N+](=O)[O-] (configuration not stated)
inactive: endpoint: mean survival time, dose: 3.13 mg/kg/injection, schedule: Q01DX001 (ip), vehicle: saline with Tween-80 103 % of control | endpoint: mean survival time, dose: 3.13 mg/kg/injection, schedule: Q01DX009 (ip), vehicle: saline with Tween-80 100 % of control | [3] 90 % of control | endpoint: mean survival time, dose: 6.25 mg/kg/injection, schedule: Q01DX009 (ip), vehicle: saline with Tween-80 107 % of control | [4] 97 % of control | endpoint: mean survival time, dose: 12.5 mg/kg/injection, schedule: Q01DX009 (ip), vehicle: saline with Tween-80 97 % of control | endpoint: mean survival time, dose: 100.0 mg/kg/injection, schedule: Q01DX001 (ip), vehicle: saline with Tween-80 87 % of control

O=C(Nc1ccc(Cl)c(Cl)c1)c1ccc(Cl)c(Cl)c1
inactive: [1] 95 % of control | [5] 91 % of control

CC[C@@]1(OC(=O)CCC(=O)O)C(=O)OCc2c1cc1n(c2=O)Cc2cc3ccccc3nc2-1
inactive: endpoint: median survival time, dose: 5.86 mg/kg/injection, schedule: Q04DX002 (ip), vehicle: water 118 % of control | endpoint: median survival time, dose: 11.73 mg/kg/injection, schedule: Q04DX002 (ip), vehicle: water 120 % of control
active: endpoint: median survival time, dose: 8.79 mg/kg/injection, schedule: Q04HX004 (iv), vehicle: water 154 % of control | endpoint: median survival time, dose: 17.59 mg/kg/injection, schedule: Q04HX004 (iv), vehicle: water 167 % of control and 180 % of control | endpoint: median survival time, dose: 35.18 mg/kg/injection, schedule: Q04HX004 (iv), vehicle: water 197 % of control and 228 % of control | endpoint: median survival time, dose: 46.9 mg/kg/injection, schedule: Q04DX002 (ip), vehicle: water 192 % of control and 200 % of control | endpoint: median survival time, dose: 93.8 mg/kg/injection, schedule: Q04DX002 (ip), vehicle: water 231 % of control

CCCCNC(=O)NC(=O)CCl
inactive: endpoint: mean survival time, dose: 100.0 mg/kg/injection, schedule: Q04DX003 (ip), vehicle: saline 97 % of control | endpoint: mean survival time, dose: 200.0 mg/kg/injection, schedule: Q04DX003 (ip), vehicle: saline 101 % of control | endpoint: mean survival time, dose: 400.0 mg/kg/injection, schedule: Q04DX003 (ip), vehicle: saline 97 % of control

CCCCCCCCCCCCCCCC(=O)Nc1ccc(CC)cc1
inactive: [1] 103 % of control | [2] 91 % of control | [5] 95 % of control

N#CCCP(CCC#N)CCCCP(CCC#N)CCC#N
inactive: [3] 100 % of control | [4] 96 % of control | endpoint: mean survival time, dose: 25.0 mg/kg/injection, schedule: Q01DX001 (ip), vehicle: saline with Tween-80 98 % of control and 102 % of control
